Reference: patent US20230321030A1, “KAEMPFEROL AGLYCONE-CONTAINING EXTRACT” (OTSUKA PHARMACEUTICAL CO., LTD., priority 2020, published 2023)

How the values were obtained:
Format in all cases: in vivo
radish sprouts [1] = experiment: L-tyrosine or L-phenylalanine addition effect 1, radish sprouts; conditions: for effect on the quercetin content / kaempferol content: 21 vol% oxygen; for kaempferol content: aqueous solution 25-400 mg/L, 10 ml/day for 7 days, dark
Protocol: (§1) The amount of kaempferol and quercetin was measured after all of the glycosides of kaempferol and quercetin were hydrolyzed and converted into aglycones. The actual procedure was as follows. After each sample was milled, 2.0 g of the milled product was weighed. After 40 mL of 70% ethanol was added, the sample was suspended with a Polytron homogenizer at room temperature at 20.000 rpm for 1 minute. 1 mL of the suspension was dispensed and weighed into a glass test tube, and 1 mL of 2 N hydrochloric acid was added. After being mixed with a vortex, the mixture was heated at 100° C. for 30 minutes with a heat block. After heating was completed, the resulting product was cooled with ice for at least 5 minutes. After cooling, 5 mL of hexane was added, and the mixture was shaken horizontally 20 times. After centrifugation at 3.000 rpm for 5 minutes at 4° C. with a cooled centrifuge, the upper layer was discarded. 5 mL of ethyl acetate was added, and the mixture was shaken horizontally with a shaker at room temperature at 250 rpm for 10 minutes. After centrifugation with a large cooled centrifuge at 4° C. at 3.000 rpm for 5 minutes, the upper layer was collected in a glass test tube for drying. 5 mL of ethyl acetate was added again to the lower layer, and the mixture was shaken horizontally with a shaker at room temperature at 250 rpm for 10 minutes. After centrifugation at 3.000 rpm at 4° C. for 5 minutes, the upper layer was collected in a glass test tube for drying. The collected upper layer was dried with nitrogen at 60° C. with a nitrogen spray dryer. After drying was complete, 1 mL of an aqueous solution of 70% ethanol was added, and the mixture was treated with an ultrasonic generator for 1 minute to dissolve it with a vortex. After being passed through a 0.45-µm filter, the solution was subjected to HPLC to perform KMP aglycone analysis, thereby determining the amount of KMP aglycones.
(§2) Aqueous solutions containing L-phenylalanine in a concentration of 25, 50, 100, 200, or 400 mg/L, aqueous solutions containing L-tyrosine in a concentration of 25, 50, 100, 200, or 400 mg/L, and aqueous solutions containing both L-tyrosine and L-phenylalanine in a concentration of 25, 50, 100, 200, or 400 mg/L were prepared. As test plants, radish sprouts and broccoli sprouts were prepared. The test plants were given one of the aqueous solutions in an amount of 10 ml/day for 7 days and grown in the dark in an oxygen concentration of 21 vol%. After 7 days, the content of kaempferol and quercetin was measured for each test plant in the same manner as in section B1-2 above. […] Additionally, quercetin was not detected in broccoli sprouts regardless of the addition of L-tyrosine and L-phenylalanine.

broccoli sprouts = experiment: L-tyrosine or L-phenylalanine addition effect 1, broccoli sprouts; conditions: for kaempferol content: aqueous solution 25-400 mg/L, 10 ml/day for 7 days, dark; for kaempferol content / quercetin content: 21 vol% oxygen; for quercetin content: regardless of the addition
Protocol: as §1, §2

radish sprouts [2] = experiment: L-tyrosine or L-phenylalanine addition effect 2, radish sprouts at 21 or 17.5 vol% oxygen; conditions: 25 or 50 mg/L, 7 days; for kaempferol content: in every oxygen concentration (21 or 17.5 vol%); for rate of increase in the kaempferol content: low-oxygen concentration (17.5 vol%)
Protocol: as §1
Aqueous solutions containing L-phenylalanine in a concentration of 25 or 50 mg/L, and aqueous solutions containing L-tyrosine in a concentration of 25 or 50 mg/L were prepared. As a test plant, radish sprouts were prepared. The test plant was given one of the aqueous solution in an amount of 10 ml/day for 7 days and grown in the dark in an oxygen concentration of 21 vol% or 17.5 vol%. After 7 days, the content of kaempferol and quercetin was measured in the same manner as in section B1-2 above.

| Compound | effect on the quercetin content (radish sprouts [1]; 25-400 mg/L, 7 days) | kaempferol content (radish sprouts [1]) | kaempferol content (broccoli sprouts) | quercetin content (broccoli sprouts; 7 days) | kaempferol content (radish sprouts [2]) | rate of increase in the kaempferol content (radish sprouts [2]) | effect on plant growth (total length and weight) (radish sprouts [1]; 25-400 mg/L, 7 days) | effect on plant growth (total length and weight) (broccoli sprouts; 25-400 mg/L, 7 days) | effect on plant growth (total length and weight) (radish sprouts [2]; 21 or 17.5 vol% oxygen) |
| --- | --- | --- | --- | --- | --- | --- | --- | --- | --- |
| N[C@@H](Cc1ccccc1)C(=O)O [L-phenylalanine] | no significant effect | increased | increased | not detected | increased | significantly increased |  |  |  |
| N[C@@H](Cc1ccc(O)cc1)C(=O)O [L-tyrosine] | no significant effect | increased | increased | not detected | increased | significantly increased | no clear effect | no clear effect | no clear effect |
